Values of other authors as cited in patent US11167054B2, “Activated disinfectant hydrogen peroxide compositions” (LONZA, LLC, priority 2014, dated 2021).
Where two headings read alike, the source gives them in different places.

Legend:
[1] = system: Pseudomonas Aeruginosa
[2] = system: Staphylococcus Aureus
[3] = 6 wt. % hydrogen peroxide solution, 5 minutes contact time
[4] = 6000 ppm (0.6 wt. %) hydrogen peroxide solution, 5 minute contact time

For `OO` [hydrogen peroxide], the “Log reduction against Pseudomonas Aeruginosa” value [1, 3] is listed as less than 2 Log, the “Log reduction against Pseudomonas Aeruginosa” value [1, 4] is listed as less than 1 Log and the “Log reduction against Staphylococcus Aureus” value [2, 3] is listed as roughly 3 Log. The “log reduction against Staphylococcus Aureus” value [2, 4] was roughly 1 log.
